Test [1] relates to HEK293. Nature of the test: NOD2 signaling inhibitors in MDP-stimulated cells, cell-based, uHTS, luminescence (AID 2001). As to conditions: Homo sapiens. The test is classed as functional.
The test system of test [2] is HEK293. Nature of the test: inhibition of NOD1-driven NF-kB reporter – cell-based, luminescence, uHTS, primary screen (AID 1578). Particulars: Homo sapiens. The test is classed as functional.
Test [3] has as its target Nucleotide-binding oligomerization domain-containing protein 2 (Homo sapiens, UniProt Q9HC29). Nature of the test: inhibition of NOD2-driven NF-kB reporter – cell-based, luminescence, uHTS, HEK293 (AID 1566). In kind it is functional.
For test [4], the system named is HEK293. The experiment in a line: cells. As to conditions: Homo sapiens.
For test [5], the system named is HEK293. The experiment in a line: cells. The test is classed as functional, cell-based. Particulars: Homo sapiens.
The target of test [6] is Tumor necrosis factor (Homo sapiens, UniProt P01375). The experiment in a line: analog potency on TNFa NF-kB signaling – cell-based, revised, SAR follow-up (AID 2337). The test is classed as functional.
Tumor necrosis factor, sequence (P01375 whole entry): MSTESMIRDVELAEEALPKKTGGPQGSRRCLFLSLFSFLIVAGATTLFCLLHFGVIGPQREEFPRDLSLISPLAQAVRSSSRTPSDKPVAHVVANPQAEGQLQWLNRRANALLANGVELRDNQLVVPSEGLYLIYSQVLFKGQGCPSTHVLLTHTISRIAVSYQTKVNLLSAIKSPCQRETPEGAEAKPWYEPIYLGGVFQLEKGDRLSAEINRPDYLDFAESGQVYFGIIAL
Test [7] concerns HEK293. The experiment in a line: cells. The test is classed as functional, cell-based. As to conditions: Homo sapiens. This is another data set of the same source.
For test [8], the system named is HEK293. Nature of the test: cells. As to conditions: Homo sapiens. The test is classed as functional, cell-based. The source holds these as a separate data set.
In test [9] the target is T1, Nucleotide-binding oligomerization domain-containing protein 1 (Homo sapiens, UniProt Q9Y239).
T1 sequence (Q9Y239 whole entry): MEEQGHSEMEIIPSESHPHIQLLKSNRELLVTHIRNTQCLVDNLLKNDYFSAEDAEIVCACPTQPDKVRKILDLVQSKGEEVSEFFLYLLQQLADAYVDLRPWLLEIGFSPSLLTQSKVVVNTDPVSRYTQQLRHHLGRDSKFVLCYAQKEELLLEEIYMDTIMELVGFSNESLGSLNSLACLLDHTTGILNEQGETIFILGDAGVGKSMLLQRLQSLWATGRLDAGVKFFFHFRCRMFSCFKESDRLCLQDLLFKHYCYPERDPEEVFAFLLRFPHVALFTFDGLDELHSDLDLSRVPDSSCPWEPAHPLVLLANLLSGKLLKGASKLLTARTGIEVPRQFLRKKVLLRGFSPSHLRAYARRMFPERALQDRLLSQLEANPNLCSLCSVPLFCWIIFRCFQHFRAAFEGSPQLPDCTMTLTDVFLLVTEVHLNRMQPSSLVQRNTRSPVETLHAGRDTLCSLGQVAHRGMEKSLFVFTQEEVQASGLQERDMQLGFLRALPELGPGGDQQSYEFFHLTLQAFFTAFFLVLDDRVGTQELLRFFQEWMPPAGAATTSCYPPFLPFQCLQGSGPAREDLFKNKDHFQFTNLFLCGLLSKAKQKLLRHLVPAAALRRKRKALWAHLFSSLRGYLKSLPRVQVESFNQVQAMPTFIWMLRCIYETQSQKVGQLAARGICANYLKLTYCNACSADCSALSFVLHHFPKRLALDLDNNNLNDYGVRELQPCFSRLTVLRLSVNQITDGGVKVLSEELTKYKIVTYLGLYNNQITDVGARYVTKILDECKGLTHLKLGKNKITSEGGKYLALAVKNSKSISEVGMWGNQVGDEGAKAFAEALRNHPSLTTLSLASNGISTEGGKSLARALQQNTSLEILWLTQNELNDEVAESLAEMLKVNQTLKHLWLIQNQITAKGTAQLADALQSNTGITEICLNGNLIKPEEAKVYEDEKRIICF
Nature of the test: blockers of NOD1 pathway activity – revised, SAR follow-up (AID 2333). In kind it is functional.

Test [10] addresses Glyceraldehyde-3-phosphate dehydrogenase (Homo sapiens, UniProt P04406).
Test [11] has as its target T2, Alkaline phosphatase, tissue-nonspecific isozyme (Homo sapiens, UniProt P05186).
T2 sequence (P05186 whole entry): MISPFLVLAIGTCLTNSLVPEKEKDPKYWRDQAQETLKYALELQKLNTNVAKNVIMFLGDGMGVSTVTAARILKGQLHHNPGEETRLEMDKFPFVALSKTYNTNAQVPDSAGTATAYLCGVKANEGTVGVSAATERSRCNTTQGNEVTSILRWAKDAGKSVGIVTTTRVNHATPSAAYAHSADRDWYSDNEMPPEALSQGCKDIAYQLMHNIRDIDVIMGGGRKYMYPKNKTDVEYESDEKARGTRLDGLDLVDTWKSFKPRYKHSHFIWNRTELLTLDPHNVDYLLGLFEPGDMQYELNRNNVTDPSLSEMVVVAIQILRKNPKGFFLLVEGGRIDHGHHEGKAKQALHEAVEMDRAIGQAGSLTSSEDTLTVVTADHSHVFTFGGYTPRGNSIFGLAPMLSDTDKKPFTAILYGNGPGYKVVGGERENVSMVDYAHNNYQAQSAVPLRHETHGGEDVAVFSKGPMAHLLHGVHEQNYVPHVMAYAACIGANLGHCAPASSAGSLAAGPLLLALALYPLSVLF
Nature of the test: potency against alkaline phosphatase TNAP – biochemical, luminescent, dose response, SAR follow-up (AID 1056).

Test [12] has as its target Dual specificity tyrosine-phosphorylation-regulated kinase 1A (Rattus norvegicus, UniProt Q63470). The test is classed as biochemical, Homo sapiens.
Test [13] can be described thus: cells. The test is classed as functional.
Test [14] in a line: THP-1 cell cytotoxicity, dose response, cytotoxicity control for non-replicating M. tuberculosis project (AID 489025). In kind it is functional.
For test [15], the target named is T3, Microphthalmia-associated transcription factor (Homo sapiens, UniProt O75030).
T3 sequence (O75030 whole entry): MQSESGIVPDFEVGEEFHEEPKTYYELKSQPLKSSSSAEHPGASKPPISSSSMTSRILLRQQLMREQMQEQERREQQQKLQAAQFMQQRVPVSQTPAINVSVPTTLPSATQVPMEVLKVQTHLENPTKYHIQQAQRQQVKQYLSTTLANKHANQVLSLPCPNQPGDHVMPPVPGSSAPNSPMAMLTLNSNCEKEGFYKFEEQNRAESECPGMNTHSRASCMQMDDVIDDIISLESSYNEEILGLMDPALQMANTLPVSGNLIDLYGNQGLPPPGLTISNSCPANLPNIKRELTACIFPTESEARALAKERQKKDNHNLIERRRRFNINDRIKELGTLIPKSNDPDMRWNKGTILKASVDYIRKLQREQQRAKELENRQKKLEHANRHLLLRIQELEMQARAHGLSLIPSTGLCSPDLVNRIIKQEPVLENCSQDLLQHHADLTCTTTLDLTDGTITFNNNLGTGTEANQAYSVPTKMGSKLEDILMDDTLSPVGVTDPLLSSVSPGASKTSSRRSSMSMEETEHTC
Nature of the test: reducers of TRPM1 reporter luminescence, concentration series – cell-based, SK-MEL-5, cherry-picked, set 3, MITF inhibitor project, dose response (AID 493073).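 Note: SK-MEL-5 melanoma cells with luciferase driven by the MITF target TRPM1 promoter.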 In kind it is functional.

Test [16] deals with T4, Heat shock factor protein 1 (Mus musculus, UniProt P38532).
T4 sequence (P38532 whole entry): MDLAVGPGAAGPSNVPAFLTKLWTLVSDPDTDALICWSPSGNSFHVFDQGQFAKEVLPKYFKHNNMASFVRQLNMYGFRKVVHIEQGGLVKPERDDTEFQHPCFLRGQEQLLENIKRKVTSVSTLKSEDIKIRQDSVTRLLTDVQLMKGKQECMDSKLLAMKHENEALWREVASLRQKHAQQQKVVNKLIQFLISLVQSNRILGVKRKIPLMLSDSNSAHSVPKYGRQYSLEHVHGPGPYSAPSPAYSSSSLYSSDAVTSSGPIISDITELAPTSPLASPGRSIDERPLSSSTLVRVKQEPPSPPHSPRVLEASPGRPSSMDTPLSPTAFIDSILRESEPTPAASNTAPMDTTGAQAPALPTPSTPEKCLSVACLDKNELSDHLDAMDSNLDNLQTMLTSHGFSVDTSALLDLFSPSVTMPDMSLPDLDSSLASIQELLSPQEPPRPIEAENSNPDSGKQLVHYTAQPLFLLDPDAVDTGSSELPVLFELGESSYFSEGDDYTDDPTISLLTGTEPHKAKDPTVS
Nature of the test: decrease of HSF1-responsive luciferase luminescence – cell-based, NIH3T3, dose retest, confirmation (AID 2382).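 Note: NIH3T3 fibroblasts with HSF1-driven luciferase reporter stressed by proteasome inhibitor MG132; luminescence from HSF1-driven luciferase expression after 8 hours of MG132 stress.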 In kind it is functional.

A short description of test [17]: microbe, parasite or virus in culture. The test is classed as functional. Particulars: Mycobacterium tuberculosis.
Test [18] deals with T5, Rac GTPase-activating protein 1 (Homo sapiens, UniProt Q9H0H5).
T5 sequence (Q9H0H5 whole entry): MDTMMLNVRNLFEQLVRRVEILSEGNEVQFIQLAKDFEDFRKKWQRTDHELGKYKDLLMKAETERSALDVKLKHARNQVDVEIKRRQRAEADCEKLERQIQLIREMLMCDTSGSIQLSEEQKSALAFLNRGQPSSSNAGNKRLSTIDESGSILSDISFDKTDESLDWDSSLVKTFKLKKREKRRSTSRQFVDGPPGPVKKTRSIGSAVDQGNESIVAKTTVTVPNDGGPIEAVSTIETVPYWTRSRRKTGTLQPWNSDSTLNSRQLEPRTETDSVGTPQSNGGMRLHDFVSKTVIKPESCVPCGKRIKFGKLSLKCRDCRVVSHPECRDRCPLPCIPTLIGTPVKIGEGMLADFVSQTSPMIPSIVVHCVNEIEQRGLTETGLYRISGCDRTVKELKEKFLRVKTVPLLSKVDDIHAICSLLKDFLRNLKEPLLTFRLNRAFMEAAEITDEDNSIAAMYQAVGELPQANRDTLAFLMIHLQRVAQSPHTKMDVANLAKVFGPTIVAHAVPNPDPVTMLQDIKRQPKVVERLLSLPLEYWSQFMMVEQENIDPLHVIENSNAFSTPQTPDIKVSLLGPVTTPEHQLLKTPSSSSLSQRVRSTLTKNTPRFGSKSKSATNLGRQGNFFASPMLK
The experiment in a line: blockers of MgcRacGAP-driven Rac1 GTP hydrolysis – biochemical, ADP Hunter fluorescence, primary and confirmatory, confirmation (AID 624330). The test is classed as functional.

Test [19] in a line: viability of uninfected HEp-2 cells – cell-based, HTS, cytotoxicity control for RSV inhibitor project, dose response (AID 2410). As to conditions: human respiratory syncytial virus. The test is classed as functional.

Structures are written as SMILES. Values joined by “and” are separate entries in the source; they are usually repeats but may differ in a detail not shown here. Identical values can stand only once. Active and inactive are the calls of the source.

Glyceraldehyde-3-phosphate dehydrogenase, sequence (P04406 whole entry): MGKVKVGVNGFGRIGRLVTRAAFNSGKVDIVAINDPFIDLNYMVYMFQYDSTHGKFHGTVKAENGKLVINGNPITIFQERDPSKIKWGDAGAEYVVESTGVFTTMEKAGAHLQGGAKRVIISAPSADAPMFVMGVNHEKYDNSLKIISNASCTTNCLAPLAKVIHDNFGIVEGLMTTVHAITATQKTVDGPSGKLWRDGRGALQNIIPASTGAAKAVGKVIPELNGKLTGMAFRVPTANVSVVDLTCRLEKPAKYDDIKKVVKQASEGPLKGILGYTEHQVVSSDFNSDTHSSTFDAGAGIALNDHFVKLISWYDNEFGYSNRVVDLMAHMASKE
Nucleotide-binding oligomerization domain-containing protein 2, sequence (Q9HC29 whole entry, the tested form may be a part): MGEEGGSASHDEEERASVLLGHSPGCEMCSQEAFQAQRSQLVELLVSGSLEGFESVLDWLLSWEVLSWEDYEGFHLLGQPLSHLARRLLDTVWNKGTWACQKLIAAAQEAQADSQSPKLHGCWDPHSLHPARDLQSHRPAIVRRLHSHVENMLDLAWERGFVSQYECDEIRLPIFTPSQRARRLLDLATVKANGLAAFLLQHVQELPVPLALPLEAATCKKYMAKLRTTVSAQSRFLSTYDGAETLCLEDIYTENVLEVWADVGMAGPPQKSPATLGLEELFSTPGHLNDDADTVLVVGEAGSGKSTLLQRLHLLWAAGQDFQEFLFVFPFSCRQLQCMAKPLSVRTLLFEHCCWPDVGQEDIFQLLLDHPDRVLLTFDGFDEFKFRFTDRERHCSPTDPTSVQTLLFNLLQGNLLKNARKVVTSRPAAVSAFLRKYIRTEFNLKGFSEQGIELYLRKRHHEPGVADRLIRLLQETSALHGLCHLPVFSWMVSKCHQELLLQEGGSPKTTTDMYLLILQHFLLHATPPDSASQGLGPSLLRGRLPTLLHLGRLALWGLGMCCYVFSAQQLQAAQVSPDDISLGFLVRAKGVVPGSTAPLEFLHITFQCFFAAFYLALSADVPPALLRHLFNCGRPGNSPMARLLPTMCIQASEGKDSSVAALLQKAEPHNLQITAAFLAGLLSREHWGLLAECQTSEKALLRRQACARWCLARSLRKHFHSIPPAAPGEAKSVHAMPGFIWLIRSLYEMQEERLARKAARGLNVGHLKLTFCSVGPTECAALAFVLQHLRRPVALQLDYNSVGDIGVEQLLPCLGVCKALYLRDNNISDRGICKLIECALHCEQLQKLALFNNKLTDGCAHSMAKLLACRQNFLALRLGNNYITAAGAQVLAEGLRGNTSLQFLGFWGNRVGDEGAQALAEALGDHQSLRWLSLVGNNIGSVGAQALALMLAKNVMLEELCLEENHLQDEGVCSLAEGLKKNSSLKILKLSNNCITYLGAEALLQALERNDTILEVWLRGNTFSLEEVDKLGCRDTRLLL

The term IC50 denotes the concentration that gives 50% inhibition. By EC50 is commonly meant the midpoint of the concentration-response curve. On to `O=C(Nc1sc2c(c1C(=O)O)CCCC2)c1ccccc1Cl`, for which the IC50 in test [1] is 18.5 µM (inactive); in [4], > 20 µM (inactive); in [5] it was > 20 µM (inactive); in test [6] it was > 20 µM (inactive) and 12.9 µM (active); in test [7] it was > 20 µM (inactive); in test [8] it was > 20 µM (inactive). Besides, the IC50 in test [9] was 5.12 µM (active) and 4.45 µM (active). Further, the EC50 was 14.5 µM (active) in test [2] and > 20 µM (inactive) in test [3].
Regarding `O=S(=O)(Nc1cccnc1)c1ccccc1`, the values for the 50% inhibitory concentration (IC50) in test [10] and in test [11] were > 100 µM (not active) and > 100 µM (inactive), respectively.
For the compound `CCc1nnc(NC(=O)c2ccc(Cl)c(S(=O)(=O)N3CCc4ccccc4C3)c2)s1`, the IC50 in test [1] is 4.3 µM (active); in [5] it was 15.5 µM (active); in [7], 5.23 µM (active); in [8], 17 µM (active). Further, the results for the EC50 in test [2] and in test [3] were 2.1 µM (active) and 5.23 µM (active), respectively.
For the compound `COc1ccc(OC)c(NC(=O)c2cnc3ccccc3c2)c1`, the IC50 is > 10 µM (inconclusive) in test [10] and > 10 µM (inactive) in test [11].
As usually defined, the AC50 is the concentration at which the activity in the assay is half-maximal. As to `Cc1ccc(CNC(=O)c2cc3c(=O)n(C)c4ccccc4c3n2C)o1`, in test [12], the AC50 was > 120 µM (inactive).
As for `COc1ccc(OC)c(NC(=O)c2cccnc2)c1`, the figures for the IC50 in [10] and in test [11] were > 100 µM (not active) and > 100 µM (inactive), respectively.
For `O=C(Nc1ccccc1)c1n[nH]c2c1COc1ccccc1-2`, the IC50 in [10] is > 100 µM (not active); in [11], > 100 µM (inactive).
On to `COc1cccc(C(=O)Nc2sc3c(c2C(=O)O)CCCC3)c1`, for which the IC50 in test [1], in test [4], in [5], in [6], in test [7] and in test [8] was > 20 µM (inactive) each time. Besides, the IC50 in test [9] was 1.76 µM (active). For the same compound, the EC50 in test [2] and in [3] was > 20 µM (inactive) throughout.
Consider `CCOc1ccc(NC(=O)c2ccc(CN3CCc4ccccc43)cc2)cc1`, for which the IC50 in test [4], in [6] and in test [9] was > 20 µM (inactive) throughout.
Take `O=C(N/N=C/c1ccc([N+](=O)[O-])s1)c1ccccc1`: the IC50 in [13] is 10.3 µM (active). Also, in test [14], the CC50 is 33.3 µM (active). In test [15], the AC50 was 2.29 µM (active).
Take `CNC(=S)N/N=C/c1ccc(-c2cccc(C(=O)O)c2)o1`: in [12], the AC50 is 7.05 µM (active). The EC50 in test [16] is > 195 µM (not active).
Regarding `CN1/C(=N\O)c2cccc3cccc1c23`, the CC50 was > 40 µM (active) in test [17] and 24.9 µM (active) in [19]. Besides, the IC50 in test [18] is 24.8 µM (active). The half-maximal activity concentration (AC50) in test [12] is 1.28 µM (active).
As to `Cc1nccn1-c1cccnc1`, the IC50 in test [10] is > 100 µM (not active); in test [11], > 100 µM (inactive).

These data come from ChEMBL document CHEMBL1201862, “PubChem BioAssay data set” (2004).
